# Assays:
# [1] = target: T1, Na^+ /H^+ exchanger (Oryctolagus cuniculus, UniProt P23791); assay: Sodium-Proton exchange inhibition in rabbit erythrocytes; assay type: cell-based, rabbit (Albino rabbits of New Zealand strain); details: concentration necessary to reduce the erythrocyte sodium content to 50%; erythrocytes of rabbits fed 2% cholesterol diet six weeks; 37° C., 1 hour, hyperosmolar sucrose buffer with ouabain
# T1 construct: increase the exchanger activity in the rabbit erythrocytes; endogenous in cells; host or cells: erythrocytes in blood of cholesterol-fed New Zealand albino rabbits
# Source text: Sodium -Proton exchange inhibition in rabbit erythrocytes:
# Albino rabbits of New Zealand strain were fed with 2% cholesterol diet for six weeks prior to collecting blood for the determination of Na^+ /H^+ exchanger activity in the erythrocytes. Hypercholesteremia has been reported to increase the exchanger activity in the rabbit erythrocytes (Scholz et al, 1990; Arteriosklerose-Neue Aspekte aus Zellbiologie und Molekulargenetik, Epidemiologie und Klinik; Assmann, G. et al, Eds, Braunschweig, Wiesbaden, Vieweg, 296-302 ). Blood samples were collected from the ear vein and hematocrit was determined. About […] of blood was incubated at 37° C. for 1 hour with hyperosmolar sucrose buffer containing 0.1 mmoles Ouabain in the presence and absence of test sample. After the incubation period, the reaction was stopped by addition of 5 ml of ice cold MgCl2 solution containing 0.1 mmole Ouabain. The erythrocytes were washed three times with 5 ml quantities of MgCl2 solution. They were hemolyzed by the addition of 4 ml of distilled water and the sodium content of the hemolyzate was determined by flame-photometry. The activity of the test compound was determined by its ability to reduce the sodium content of the erythrocyte and was expressed as IC50 which is the concentration necessary to reduce the erythrocyte sodium content to 50%.
# [2] = system: rat hearts; details: isolated rat hearts, cited from earlier work
# [3] = Circulation 79, 1257-1263 (1989); cited from earlier work
# T1 sequence (P23791 whole entry): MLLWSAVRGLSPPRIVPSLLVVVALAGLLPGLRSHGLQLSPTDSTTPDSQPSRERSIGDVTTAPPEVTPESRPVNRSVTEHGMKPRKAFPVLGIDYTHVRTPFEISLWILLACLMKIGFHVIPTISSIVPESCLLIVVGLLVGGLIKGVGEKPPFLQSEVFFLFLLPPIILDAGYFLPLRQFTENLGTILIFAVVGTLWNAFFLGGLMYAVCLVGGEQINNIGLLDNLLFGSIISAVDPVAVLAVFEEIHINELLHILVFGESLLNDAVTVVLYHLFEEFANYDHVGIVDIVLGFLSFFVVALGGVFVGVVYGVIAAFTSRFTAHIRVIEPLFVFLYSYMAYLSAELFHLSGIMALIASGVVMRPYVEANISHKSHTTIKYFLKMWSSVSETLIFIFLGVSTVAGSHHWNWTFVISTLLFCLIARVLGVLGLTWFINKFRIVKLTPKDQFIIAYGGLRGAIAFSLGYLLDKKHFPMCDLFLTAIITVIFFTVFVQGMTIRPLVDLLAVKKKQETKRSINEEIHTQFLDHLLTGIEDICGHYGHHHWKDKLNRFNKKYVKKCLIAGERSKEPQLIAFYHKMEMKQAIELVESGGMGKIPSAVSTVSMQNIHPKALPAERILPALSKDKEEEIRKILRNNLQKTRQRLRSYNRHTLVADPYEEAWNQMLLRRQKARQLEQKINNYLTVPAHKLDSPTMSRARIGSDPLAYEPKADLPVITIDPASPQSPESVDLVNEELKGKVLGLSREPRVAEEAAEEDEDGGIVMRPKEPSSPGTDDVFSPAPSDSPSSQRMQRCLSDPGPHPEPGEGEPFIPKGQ
SMILES,IC50 [1],other results
N=C(N)NC(=O)c1nc(Cl)c(N)nc1N [amiloride],,suppression of artificially induced ventricular fibrillation ([2]; Eur. Heart J. 9 {supplement 1}: 167 (1988)): suppress an artificially induced ventricular fibrillation completely; antiarrhythmic effect [3]: only slight
CCN(c1nc(N)c(C(=O)N=C(N)N)nc1Cl)C(C)C [ethylisopropylamiloride],,potency relative to amiloride against artificially induced ventricular fibrillation [2]: even more potent than amiloride

# Further lines, with some results ahead:
IC50 [1],SMILES,other results
700 nM,"Cc1cccc2c1CCC2=CC(=O)N=C(N)N [Compound No. 4, 4-methyl-1-indanylidineacetyl-guanidine-methanesulfonic acid]",
660 nM,COc1ccc2c(c1)C(=CC(=O)N=C(N)N)CC2 [compound 6],
450 nM,Cc1ccc2c(c1)CCC2=CC(=O)N=C(N)N [compound 7],

# From patent publication US5900436A, “Substituted indanylidineacetylguanidines, processes for their preparation, their use as medicaments or diagnostics and medicaments containing them” (priority 1996, dated 1999)
